Results taken from PubChem BioAssay (NCI).
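Test compounds were applied to cells in 96-well plates for 48 hours at 5 doses. Abbreviation: GI50, concentration required for 50% inhibition of growth. TGI denotes the concentration required for complete inhibition of growth.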

Columns and labels:
Assay in all cases: inhibition of tumour cell growth, NCI panel, 48 h
ACHN renal = tested on: ACHN renal
MDA-MB-231 breast = tested on: MDA-MB-231 breast
SF-295 CNS = tested on: SF-295 CNS
NCI-H226 lung = tested on: NCI-H226 lung
UACC-62 melanoma = tested on: UACC-62 melanoma
MDA-MB-435 = tested on: MDA-MB-435
HCT-15 colon = tested on: HCT-15 colon
MALME-3M melanoma = tested on: MALME-3M melanoma
KM12 colon = tested on: KM12 colon
SK-OV-3 ovarian = tested on: SK-OV-3 ovarian
OVCAR-5 ovarian = tested on: OVCAR-5 ovarian
RXF 393 renal = tested on: RXF 393 renal
COLO 205 colon = tested on: COLO 205 colon
NCI-H460 lung = tested on: NCI-H460 lung
NCI-H23 lung = tested on: NCI-H23 lung
U251 CNS = tested on: U251 CNS
CCRF-CEM leukemia = tested on: CCRF-CEM leukemia
SK-MEL-28 melanoma = tested on: SK-MEL-28 melanoma
UACC-257 melanoma = tested on: UACC-257 melanoma
OVCAR-8 ovarian = tested on: OVCAR-8 ovarian
SF-268 CNS = tested on: SF-268 CNS
T-47D breast = tested on: T-47D breast
BT-549 breast = tested on: BT-549 breast
K-562 leukemia = tested on: K-562 leukemia
MDA-MB-468 breast = tested on: MDA-MB-468 breast
CAKI-1 renal = tested on: CAKI-1 renal
SNB-19 CNS = tested on: SNB-19 CNS
SK-MEL-2 melanoma = tested on: SK-MEL-2 melanoma
SR leukemia = tested on: SR leukemia
M14 melanoma = tested on: M14 melanoma

CC12CCC3(CCC(=O)NCCCNc4ccnc5cc(Cl)ccc45)[C@@](C)(OO[C@]3(C)O1)O2
TGI (ACHN renal): 6.73 µM
GI50 (MDA-MB-231 breast): 1.4 µM
TGI (MDA-MB-231 breast): 9.92 µM
GI50 (SF-295 CNS): 4.5 µM
TGI (SF-295 CNS): 15 µM
GI50 (NCI-H226 lung): 1.72 µM
TGI (NCI-H226 lung): 15 µM
GI50 (UACC-62 melanoma): 5.58 µM
TGI (UACC-62 melanoma): > 25.5 µM
GI50 (MDA-MB-435): 4.89 µM
TGI (MDA-MB-435): > 25.5 µM
GI50 (HCT-15 colon): 7.9 µM
TGI (HCT-15 colon): > 25.5 µM
GI50 (MALME-3M melanoma): 4.73 µM
TGI (MALME-3M melanoma): 19.6 µM
GI50 (KM12 colon): 4.5 µM
TGI (KM12 colon): 24.2 µM
GI50 (SK-OV-3 ovarian): 5.46 µM
TGI (SK-OV-3 ovarian): 16.1 µM
GI50 (OVCAR-5 ovarian): 4.2 µM
TGI (OVCAR-5 ovarian): 16 µM
GI50 (RXF 393 renal): 0.646 µM
TGI (RXF 393 renal): 2.74 µM
GI50 (COLO 205 colon): 4.99 µM
TGI (COLO 205 colon): > 25.5 µM
GI50 (NCI-H460 lung): 2.49 µM
TGI (NCI-H460 lung): 11.4 µM
GI50 (NCI-H23 lung): 3.77 µM
TGI (NCI-H23 lung): 11.8 µM
GI50 (U251 CNS): 4.45 µM
TGI (U251 CNS): 11.6 µM
GI50 (CCRF-CEM leukemia): 3.85 µM
TGI (CCRF-CEM leukemia): 11 µM
GI50 (SK-MEL-28 melanoma): 8.78 µM
TGI (SK-MEL-28 melanoma): > 25.5 µM
GI50 (UACC-257 melanoma): 8.99 µM
TGI (UACC-257 melanoma): > 25.5 µM
GI50 (OVCAR-8 ovarian): 4.92 µM
TGI (OVCAR-8 ovarian): 12.7 µM
GI50 (SF-268 CNS): 2.09 µM
TGI (SF-268 CNS): 8.55 µM
GI50 (T-47D breast): 5.99 µM
TGI (T-47D breast): > 25.5 µM
GI50 (BT-549 breast): 5.28 µM
TGI (BT-549 breast): 15.5 µM
GI50 (K-562 leukemia): 5.55 µM
TGI (K-562 leukemia): > 25.5 µM
GI50 (MDA-MB-468 breast): 4.05 µM
TGI (MDA-MB-468 breast): 9.17 µM
GI50 (CAKI-1 renal): 0.951 µM
TGI (CAKI-1 renal): 4.75 µM
GI50 (SNB-19 CNS): 7.12 µM
TGI (SNB-19 CNS): > 25.5 µM
GI50 (SK-MEL-2 melanoma): 8.21 µM
TGI (SK-MEL-2 melanoma): > 25.5 µM
GI50 (SR leukemia): 3.66 µM
TGI (SR leukemia): 16.3 µM
GI50 (M14 melanoma): 4.36 µM
TGI (M14 melanoma): 17.4 µM
